Test results: patent publication US8486965B2, “Pyrrolo[2,3-b]pyridine derivative and use thereof for treatment of cancer” (Takeda Pharmaceutical Company Limited, priority 2009, dated 2013)

Key:
mouse medulloblastoma = experiment: In vivo anti-tumor test, mouse medulloblastoma allogeneic transplantation model; details: 1 mg/kg, orally once a day for 2 weeks; subcutaneous medulloblastoma in nude mouse; at the end of the test; p < 0.025 (Dunnett's test)
Protocol: According to the description in Sasaki, K. et al., (2006) Cancer Res. 66: 4215-4222, an anti-tumor effect of a compound was evaluated using a mouse medulloblastoma allogeneic transplantation model. To be precise, Patched 1 gene mutant mouse (lineage name: Ptch1tm1Mps/J) was purchased from The Jackson Laboratory and p53 gene mutant mouse (lineage name: P53N4-M, Nomenclature: B6.129-Trp53tm/BrdN4) was purchased from Taconic, and a mouse of Patched 1(+/−), p53(−/−) phenotype was prepared by mating. […]
An anti-tumor test was performed using a tumor passaged by subcutaneous transplantation. […] The tumor diameter after transplantation was measured and, when the tumor size reached 150-250 mm^3, the anti-tumor test was started using 5 mice per group.
The test compound was prepared to achieve a dose of 1 mg/kg with a 0.5% methylcellulose (Shin-Etsu Chemical Co., Ltd., Cat. No. SM-100) suspension, and orally administered once a day for 2 weeks. The tumor size was calculated based on the longer diameter and shorter diameter of the tumor measured with an electron vernier caliper. After the start of the test, the tumor size was measured every 2 or 3 days and the growth rate of the tumor size was calculated. […]

[1] = system: Hedgehog signal transduction system (Smo); experiment: Gli reporter luciferase assay in NIH-3T3/Gli reporter cells stimulated with mouse Shh-N end fragment; format: cell-based; details: NIH3T3; 1 μM compound; NIH-3T3/Gli reporter cells with mouse Shh-N end fragment culture supernatant, 48 hr; luciferase activity, control without compound as 100; read-out: inhibition rate (%) at 1 μM
Procedure, shortened: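 NIH-3T3 cells stably carrying a luciferase reporter driven by 8× Gli-binding sites and chicken δ-crystalline promoter, plated at 1×10^4 cells/well and cultured overnight at 37° C in 10% FBS D-MEM. Compound added with recombinant mouse Shh-N fragment (aa 1–198, HEK293-expressed) to induce signaling; luciferase read-out.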

CCc1nc2c(cc1NC(=O)c1ccccc1)c(OC(C)C)c(C(=O)NC1CCN(C(=O)CO)CC1)n2C [Example 46, 6-ethyl-N-[1-(hydroxyacetyl)piperidin-4-yl]-1-methyl-3-(1-methylethoxy)-5-[(phenylcarbonyl)amino]-1H-pyrrolo[2,3-b]pyridine-2-carboxamide]
T/C (%) (growth rate of the tumor size) (mouse medulloblastoma): 51% | inhibition at 1 µM [1]: 98%
